Assays:
[1] = molecular target: T1, Kappa-type opioid receptor (Cavia porcellus, UniProt P41144); experiment: Displacement of [3H]U-69,593 from kappa opioid receptor in guinea pig brain membranes by scintillation counting analysis; assay type: cell membranes, Membrane
[2] = molecular target: T2, Sigma intracellular receptor 2 (Rattus norvegicus, UniProt Q5U3Y7); experiment: Displacement of [3H]DTG from sigma2 receptor in Sprague-Dawley rat liver membranes after 120 mins by scintillation counting analysis; assay type: cell membranes, Membrane
T2 sequence (Q5U3Y7 whole entry): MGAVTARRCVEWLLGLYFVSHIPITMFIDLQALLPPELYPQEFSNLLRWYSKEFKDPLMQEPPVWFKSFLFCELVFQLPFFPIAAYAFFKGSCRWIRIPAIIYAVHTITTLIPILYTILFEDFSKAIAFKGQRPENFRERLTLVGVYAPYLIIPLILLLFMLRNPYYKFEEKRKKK

Mu-type opioid receptor = Mu-type opioid receptor (Cavia porcellus, UniProt P97266); experiment: Displacement of [3H]DAMGO from mu opioid receptor in guinea pig brain membranes after 120 mins by scintillation counting analysis; assay type: cell membranes, Membrane
Mu-type opioid receptor, sequence (P97266 whole entry): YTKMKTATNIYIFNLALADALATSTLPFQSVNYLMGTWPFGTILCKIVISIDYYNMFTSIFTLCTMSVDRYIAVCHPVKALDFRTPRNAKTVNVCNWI

[3] = molecular target: Delta-type opioid receptor (Rattus norvegicus, UniProt P33533); experiment: Displacement of [3H]DPDPE from delta opioid receptor in Sprague-Dawley rat brain membranes after 120 mins by scintillation counting analysis; assay type: cell membranes, Membrane
Delta-type opioid receptor, sequence (P33533 whole entry): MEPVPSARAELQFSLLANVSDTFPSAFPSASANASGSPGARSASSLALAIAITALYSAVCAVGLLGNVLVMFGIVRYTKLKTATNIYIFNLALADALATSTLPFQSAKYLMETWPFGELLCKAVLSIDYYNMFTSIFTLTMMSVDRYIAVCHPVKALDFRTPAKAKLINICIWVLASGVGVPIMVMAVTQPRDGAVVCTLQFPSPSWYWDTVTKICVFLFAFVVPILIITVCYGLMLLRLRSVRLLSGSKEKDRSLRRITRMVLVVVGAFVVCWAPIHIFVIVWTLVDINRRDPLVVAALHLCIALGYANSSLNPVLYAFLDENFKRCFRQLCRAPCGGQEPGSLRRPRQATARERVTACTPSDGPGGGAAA

[4] = molecular target: Sigma non-opioid intracellular receptor 1 (Cavia porcellus, UniProt Q60492); experiment: Displacement of [3H]-(+)-Pentazocine from sigma1 receptor in guinea pig brain cortex membranes after 120 mins by scintillation counting analysis; assay type: cell membranes
Sigma non-opioid intracellular receptor 1, sequence (Q60492 whole entry): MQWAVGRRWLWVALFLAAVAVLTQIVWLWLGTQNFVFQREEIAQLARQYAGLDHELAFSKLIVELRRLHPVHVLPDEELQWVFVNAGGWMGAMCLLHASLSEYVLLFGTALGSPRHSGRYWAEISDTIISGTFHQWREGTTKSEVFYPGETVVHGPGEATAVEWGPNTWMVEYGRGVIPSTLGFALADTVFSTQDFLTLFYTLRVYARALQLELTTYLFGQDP

[5] = molecular target: T1, Kappa-type opioid receptor; experiment: Displacement of [3H]U-69,593 from kappa opioid receptor in guinea pig brain membranes after 120 mins by scintillation counting analysis; assay type: cell membranes, Membrane
[6] = molecular target: Kappa-type opioid receptor (Homo sapiens) (UniProt P41145); experiment: Agonist activity at kappa opioid receptor in HEK293 cells at 1 uM after 30 mins by [35S]-GTPgammaS binding assay relative to control; assay type: functional, cell-based
Kappa-type opioid receptor (Homo sapiens), sequence (P41145 whole entry): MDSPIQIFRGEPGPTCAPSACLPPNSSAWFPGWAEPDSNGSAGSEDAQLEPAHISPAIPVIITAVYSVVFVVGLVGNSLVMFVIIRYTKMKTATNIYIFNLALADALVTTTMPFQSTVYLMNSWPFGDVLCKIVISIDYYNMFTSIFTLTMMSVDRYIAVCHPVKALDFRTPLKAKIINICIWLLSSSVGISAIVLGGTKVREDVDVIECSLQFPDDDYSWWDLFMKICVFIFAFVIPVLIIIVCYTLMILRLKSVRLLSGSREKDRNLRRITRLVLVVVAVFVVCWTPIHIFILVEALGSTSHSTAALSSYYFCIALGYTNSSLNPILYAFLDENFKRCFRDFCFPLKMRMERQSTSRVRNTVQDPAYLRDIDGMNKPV

T1 sequence (P41144 whole entry): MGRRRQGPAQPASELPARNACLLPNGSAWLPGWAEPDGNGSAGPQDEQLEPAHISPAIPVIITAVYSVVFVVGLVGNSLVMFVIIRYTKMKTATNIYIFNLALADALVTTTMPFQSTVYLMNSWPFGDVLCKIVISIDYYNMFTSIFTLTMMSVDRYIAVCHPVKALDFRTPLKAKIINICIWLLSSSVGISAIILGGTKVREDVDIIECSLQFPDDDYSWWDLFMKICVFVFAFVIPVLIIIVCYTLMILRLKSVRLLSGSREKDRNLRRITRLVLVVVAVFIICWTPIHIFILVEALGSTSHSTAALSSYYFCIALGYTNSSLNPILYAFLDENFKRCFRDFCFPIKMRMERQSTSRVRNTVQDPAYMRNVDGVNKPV

SMILES	Ki [1] [µM]	Ki [2] [µM]	Ki (Mu-type opioid receptor) [µM]	Ki [3] [µM]	Ki [4] [µM]	Ki [5] [µM]	Activity [6] [%]
COC(=O)N1CCC(NC(=O)Cc2ccc(Cl)c(Cl)c2)C([C@@H](C)N2CCCC2)C1 (stereo partly drawn)	0.00031	–	–	–	–	–	–
CCN1CC2OCCN(C(=O)Cc3ccc(Cl)c(Cl)c3)C2C(N2CCCC2)C1 (racemic)	–	0.102	> 1	> 1	0.391	1.3	–
O=C(Cc1ccc(Cl)c(Cl)c1)N1CC2OCCN(C(=O)Cc3ccc(Cl)c(Cl)c3)C2C(N2CCCC2)C1 (racemic)	–	> 1	–	–	–	–	–
O=C(Cc1ccc(Cl)c(Cl)c1)N1CCOC2CN(Cc3ccccc3)CC(N3CCCC3)C21 (racemic)	–	> 1	0.261	0.26	0.983	0.912	–
O=C(Cc1ccc(Cl)c(Cl)c1)N1CCOC2CN(Cc3cccnc3)CC(N3CCCC3)C21 (racemic)	–	> 1	0.633	0.666	0.291	> 1	–
O=C(Cc1ccc(Cl)c(Cl)c1)N1CCOC2CNCC(N3CCCC3)C21 (racemic)	–	> 1	> 1	> 1	> 1	0.132	27
CN1CC2OCCN(C(=O)Cc3ccc(Cl)c(Cl)c3)C2C(N2CCCC2)C1 (racemic)	–	> 1	> 1	> 1	> 1	0.286	–
O=C1COC2CN(C(=O)Cc3ccc(Cl)c(Cl)c3)CC(N3CCCC3)C2N1 (racemic)	–	> 1	> 1	> 1	> 1	> 1	–
CCCCN1CC2OCCN(C(=O)Cc3ccc(Cl)c(Cl)c3)C2C(N2CCCC2)C1 (racemic)	–	0.316	0.502	> 1	0.192	> 1	–
O=C(Cc1ccc(Cl)c(Cl)c1)N1CCOC2CN(C3CCCC3)CC(N3CCCC3)C21 (racemic)	–	0.045	0.447	0.717	0.181	> 1	–
